Data: patent publication US11414387B2, “Oxoacridinyl acetic acid derivatives and methods of use” (Stingthera, Inc., priority 2017, dated 2022)

Experiments:
[1] = molecular target: hSTING-CTD (Homo sapiens (Human), UniProt Q86WV6); assay: Human STING protein FP competition concentration response assay; format: binding
Procedure: (§1) A validated STING ligand, such as c-di-GMP, which is labeled with a read-out signal (e.g., a fluorescence signal such as fluorescein), is mixed with STING-CTD (e.g., mouse STING-CTD or human STING-CTD) with or without the presence of a compound of the present application. Changes in the read-out signal are measured (e.g., by fluorescence anisotropy) to determine the binding of the compound to STING-CTD.
Fluorescein labeled c-di-GMP, a validated STING ligand, was mixed with recombinant hSTING-CTD in a homogenous assay format with or without the presence of a compound of the present application (titrated) in PBS in black 384-well plates (10 μL per well). The fluorescence anisotropy was determined on a PerkinElmer EnVisions multi-mode plate reader. The plate can be read immediately after mixing the reagents or after a few hours without change of signals.
• 1) hSTING (Supplier: HDB) • 2) 2′-Fluo-AHC-c-di GMP (BIOLOG #F009) • 3) 2′3′-cGAMP (BIOLOG #C161) • 4) DMXAA (InvivoGen #tlrl-dmx) • 5) DMSO (Sigma, #D5879-100 mL) • 6) 10×PBS(HDB #MCP-020) • 7) Assay plate, 384-well black plate, solid black bottom (Greiner #784076) • 8) Compound dilution intermediate plate, 384 LDV plate (Labcyte #LP-0200) • 9) Liquid handler, ECHO550 (Labcyte) • 10) Liquid handler, Bravo (Aglient) • 11) Reader, Envision (PerkinElmer) • 12) Centrifuge (Eppendorf) • 13) Multichannel Pipette (Raining) • 14) 10 ml Reservoir (Corning) • 15) 15 ml centrifuge tube (Corning) • 16) Adhesive Plate seals (BioRad) Compound Preparation • a) Containers of each compound were centrifuged at 1000 rpm for 5 min. • b) Compounds were dissolved in DMSO at 30 mM. • c) Compounds were sufficiently vortexed, and centrifuged at 1000 rpm for 1 min. • d) 16 uL of the compound solution was transferred into a LDV Compound Plate. • e) 2-fold serial dilutions of the compound solution were made with DMSO, and 14 concentrations were made in the 384-well LDV Compound Plate. • f) The LDV plate was spun at 1000 rpm for 60 sec and sealed with foil (stored at −20° C. if not used immediately). • g) 335 nL of each compound from the LDV Compound Plate was transferred to Assay Plate (ECHO550). Probe Preparation • a) 200 uM probe stock (2′-Fluo-AHC-c-diGMP) was diluted by ddH2O to 6 uM working concentration. • b) 10-12 uL 6 uM working solution of probe was transferred into the LDV plate. • c) 50 nL per well 6 uM working solution of probe was transferred from the LDV plate to each well of the empty Assay Plate (Greiner 784076) by ECHO550 Buffer mode. • d) Probe final concentration was 30 nM when assay system was 10 uL. • e) The Assay Plate was spun at 1000 rpm for 1 min. Compound Addition • a) After the LDV Compound Plate was prepared, 335 nL compound (ECHO550 DMSO mode) was transferred from the LDV Compound Plate into the Assay Plate (Greiner 784076) containing 50 nL probe in each well according to the Assay Plate layout. • b) DMSO final concentration was 3.35% when assay system was 10 uL. • c) The Assay Plate was spun at 1000 rpm for 1 min. Protein Addition • a) Aliquot of hSTING protein was thawed on ice, briefly to generate uniform solution. • b) 55 uM stock protein was diluted in 1×PBS assay buffer to generate 10 uM final solutions. • c) For test compound and ZPE wells, 10 μL per well of 10 uM protein solutions was added into the Assay Plate containing both the probe and test compounds or DMSO using multichannel pipette. • d) For HPE wells, 10 μL/well of 1×PBS assay buffer instead of protein was added into the Assay Plate containing both the probe and DMSO using multichannel pipette. • e) The Assay Plate was spun at 1000 rpm for Imin. • f) The Assay Plate was incubated at r.t. for 10-20 min.
(§2) The EnVision plate reader was used to record the FA value of each well immediately after mixing the reagents or after a few hours without change of signals.
(§3) The raw data and calculated data (Fluorescence anisotropy (FA)) was exported from the EnVision reader. […]

[2] = molecular target: mSTING-CTD (Mus musculus (Mouse), UniProt Q3TBT3); assay: Mouse STING protein FP competition concentration response assay; format: binding
Procedure: as §1
Fluorescein labeled c-di-GMP was mixed with mSTING-CTD with or without the presence of a compound of the present application in PBS in black 384-well plates (10 μL per well). The fluorescence anisotropy was determined on a PerkinElmer EnVisions multi-mode plate reader. The plate can be read immediately after mixing the reagents or after a few hours without change of signals.
• 1) 6×his-sumo-mSTING (Supplier: HDB) • 2) 2′-Fluo-AHC-c-di GMP (BIOLOG #F009) • 3) 23-cGAMP (BIOLOG #C161) • 4) DMXAA (InvivoGen #tlrl-dmx) • 5) DMSO (Sigma. #D5879-100 mL) • 6) 10×PBS(HDB #MCP-020) • 7) Assay plate, 384-well black plate, solid black bottom (Greiner #784076) • 8) Compound dilution intermediate plate, 384 LDV plate (Labcyte #LP-0200) • 9) Liquid handler, ECHO550 (Labcyte) • 10) Liquid handler, Bravo (Aglient) • 11) Reader, Envision (PerkinElmer) • 12) Centrifuge (Eppendorf) • 13) Multichannel Pipette (Raining) • 14) 10 ml Reservoir (Corning) • 15) 15 ml centrifuge tube (Corning) • 16) Adhesive Plate seals (BioRad) Compound Preparation • a) Containers of each compound were centrifuged at 1000 rpm for 5 min. • b) Compounds were dissolved in DMSO at 30 mM. • c) Compounds were sufficiently vortexed, and centrifuged at 1000 rpm for 1 min. • d) 16 uL of the compound solution was transferred into a LDV Compound Plate. • e) 2-fold serial dilutions of the compound solution were made with DMSO, and 14 concentrations were made in the 384-well LDV Compound Plate. • f) The LDV plate was spun at 1000 rpm for 60 sec and sealed with foil (stored at −20° C. if not used immediately). • g) 335 nL of each compound from the LDV Compound Plate was transferred to Assay Plate (ECHO550). Probe Preparation • a) 200 uM probe stock (2′-Fluo-AHC-c-diGMP) was diluted by dd2O to 6 uM working concentration. • b) 10-12 uL 6 uM working solution of probe was transferred into the LDV plate. • c) 50 nL per well 6 uM working solution of probe was transferred from the LDV plate to each well of the empty Assay Plate (Greiner 784076) by ECHO550 Buffer mode. • d) Probe final concentration was 30 nM when assay system was 10 uL. • e) The Assay Plate was spun at 1000 rpm for 1 min. Compound Addition • a) After the LDV Compound Plate was prepared, 100 nL compound (ECHO550 DMSO mode) was transferred from the LDV Compound Plate into the Assay Plate (Greiner 784076) containing 50 nL probe in each well according to the Assay Plate layout. • b) DMSO final concentration was 1% when assay system was 10 uL. • c) The Assay Plate was spun at 1000 rpm for 1 min. Protein Addition • a) Aliquot of 6×his-sumo-mSTING protein was thawed on ice, briefly to generate uniform solution. • b) 66 uM stock protein was diluted in 1×PBS assay buffer to generate 8 uM final solutions. • c) For test compound and ZPE wells, 10 μL per well of 8 uM protein solutions was added into the Assay Plate containing both the probe and test compounds or DMSO using multichannel pipette. • d) For HPE wells, 10 µL/well of 1×PBS assay buffer instead of protein was added into the Assay Plate containing both the probe and DMSO using multichannel pipette. • e) The Assay Plate was spun at 1000 rpm for 1 min. • f) The Assay Plate was incubated at r.t. for 10-20 min.
as §2, §3

[3] = molecular target: hSTING-WT (Homo sapiens (Human), UniProt Q86WV6, H232R); assay: Radiometric filtration binding competition assay, hSTING-WT
Procedure: A radiometric filtration binding competition assay was performed to quantify the binding affinity of compounds of the present application for the human or mouse STING protein, or associated HAQ human isoform. […] The resulting dose response was fit by non-linear regression to determine an IC50 value, from which a Ki value for each compound was extrapolated.
The resulting complexes were then filtered, dried, and scintillation fluid was added and the remaining radio signal was measured to determine the degree of compound ligand inhibition. This assay format was optimized for both the WT and HAQ isoforms of the human protein and the mouse orthologue protein.
Probe Concentration: Minimum concentration that achieved max assay window • g. Assay Format: Scintillation Proximity Bead or Filtration Binding Plate • h. […] Assay incubation times for successive incubation steps
WT-hSWAT: WT_FBA_HIS-SUMO-hSWAT IC50 (μM) (“WT”=Wild-type); HAQ-hSWAT: HAQ_FBA_HIS-SUMO-hSWAT IC50 (μM) (“HAQ”=human HAQ allele of STING protein); and WT-mSWAT: MOUSE_FBA_HIS-SUMO-mnSWAT IC50 (μM) which is the mouse isoform of STING protein.

[4] = molecular target: STING protein (Homo sapiens (Human), UniProt Q86WV6, H232R); assay: Cell based reporter assay of IRF activation (IRF-luciferase), THP1-dual-KI R232; conditions: read-out: THP1-dual-KI R232_IRF(Luciferase)_Activity Maximum measured (%)
[5] = molecular target: hSTING-R232 (Homo sapiens (Human), UniProt Q86WV6, H232R); assay: STING differential scanning fluorimetry (DSF) assay, WT human STING; conditions: WT (R232) human STING aa140-379, net shift in melting temperature
Procedure: (§4) A STING DSF assay was performed to determine protein thermostability shift in response to small molecule ligand binding. A STING thermostability shift assay based on differential scanning fluorimetry was used to measure (1) the net shift in melting temperature (ΔTm)between the apo and ligand-bound states of the STING protein and (2) the concentration of the thermal denaturation transition (EC50) as a surrogate measure of binding affinity (K). […] Protein in assay buffer was transferred to a 384 well plate and incubated with the hydrophobic fluorescent dye SYBR Orange. A temperature ramp was applied to the plate and the resulting dye fluorescence was plotted as a function of temperature. The first derivative of this function (dF/dT) was then used to extrapolate the melting temperature of the protein at various concentrations of compound and determine the thermal denaturation profile of a protein/compound complex.
(§5) • 1. Protein construct (affinity tag removal vs SUMO-fusion construct) • 2. Protein concentration • 3. Dye concentration • 4. Buffer • 5. Thermal ramp velocity • 6. DMSO tolerance • 7. Compound titration parameters • 8. […] 5 μM purified Target STING Protein • 3. 8 μM Sypro Orange Dye • 4. Buffer: 100 mM NaCl, 30 mM HEPES, pH 7.5 • 5. Thermal Ramp: 0.5° C./min • 6. <1% DMSO • 7. 11 point, 2 fold dilution, duplicate, 300 μM high concentrations • 8.

[6] = molecular target: mSTING-R232 (Mus musculus, UniProt Q3TBT3); assay: STING differential scanning fluorimetry (DSF) assay, mouse STING; conditions: net shift in melting temperature
Procedure: as §4, §5

Chain of mSTING-CTD (Q3TBT3 134-378): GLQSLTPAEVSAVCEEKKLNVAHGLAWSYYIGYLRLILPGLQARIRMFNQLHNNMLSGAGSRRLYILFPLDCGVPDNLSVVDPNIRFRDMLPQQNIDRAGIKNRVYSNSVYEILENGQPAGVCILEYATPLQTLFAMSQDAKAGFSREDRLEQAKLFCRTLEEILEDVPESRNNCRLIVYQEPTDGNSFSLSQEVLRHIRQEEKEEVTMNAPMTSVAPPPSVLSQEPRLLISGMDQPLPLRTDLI
Chain of hSTING-WT (Q86WV6 140-379 H232R): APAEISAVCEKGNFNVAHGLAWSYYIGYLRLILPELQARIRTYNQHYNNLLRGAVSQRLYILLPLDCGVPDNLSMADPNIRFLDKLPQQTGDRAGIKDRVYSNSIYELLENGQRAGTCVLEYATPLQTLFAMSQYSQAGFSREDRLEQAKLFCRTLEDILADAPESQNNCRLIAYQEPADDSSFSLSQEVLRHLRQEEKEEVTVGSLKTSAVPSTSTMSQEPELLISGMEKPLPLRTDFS
Chain of hSTING-R232 (Q86WV6 140-379 H232R): as above
Chain of STING protein (Q86WV6 whole entry H232R, the tested form may be a part): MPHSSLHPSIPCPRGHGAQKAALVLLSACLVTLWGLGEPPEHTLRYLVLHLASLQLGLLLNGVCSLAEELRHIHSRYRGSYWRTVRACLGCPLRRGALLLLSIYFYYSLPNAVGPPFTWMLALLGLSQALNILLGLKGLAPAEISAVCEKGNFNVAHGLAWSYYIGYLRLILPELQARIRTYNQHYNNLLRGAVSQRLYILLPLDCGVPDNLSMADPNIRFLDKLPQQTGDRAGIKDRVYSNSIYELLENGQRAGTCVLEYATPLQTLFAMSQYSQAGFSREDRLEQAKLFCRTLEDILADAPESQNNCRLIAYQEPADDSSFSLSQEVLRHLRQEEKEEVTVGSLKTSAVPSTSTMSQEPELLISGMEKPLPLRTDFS
Chain of hSTING-CTD (Q86WV6 135-379): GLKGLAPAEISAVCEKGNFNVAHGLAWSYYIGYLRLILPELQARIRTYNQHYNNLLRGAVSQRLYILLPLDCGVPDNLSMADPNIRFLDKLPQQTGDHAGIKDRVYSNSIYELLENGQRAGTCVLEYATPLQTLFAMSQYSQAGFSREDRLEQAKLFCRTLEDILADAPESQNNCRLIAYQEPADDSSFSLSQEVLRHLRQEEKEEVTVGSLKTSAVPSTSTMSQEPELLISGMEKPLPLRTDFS

Row | SMILES | IC50 [1] [µM] | IC50 [2] [µM] | also measured
1 | Cc1ccc2c(=O)c3cc(CCc4ccccc4C)ccc3n(CC(=O)O)c2c1 [Compound 75] | 100 to 500 | > 100 | 
2 | CN(C)c1ccc2c(=O)c3ccc(Cl)c(Cl)c3n(CC(=O)O)c2c1 [Compound 71] | 100 to 500 | 10 to 50 | 
3 | COc1ccc2c(=O)c3c(C)cccc3n(CC(=O)O)c2c1 [Compound 35] |  | 10 to 50 | 
4 | O=C(O)Cn1c2cc(N3CCOCC3)ccc2c(=O)c2ccc(Cl)c(Cl)c21 [Compound 60] | < 100 | 10 to 50 | 
5 | COCc1c(Cl)ccc2c(=O)c3ccccc3n(CC(=O)O)c12 [Compound 229] | < 100 |  | IC50 [3]: > 300 µM; Emax [4]: < 5%; WT_DSF_hSWAT Tm Shift (° C.) [5]: B (“B” = 0-2° C.)
6 | O=C(O)Cn1c2ccccc2c(=O)c2c(F)cccc21 [Compound 1] |  | 50 to 100 | 
7 | Cc1cccc2c(=O)c3ccccc3n(CC(=O)O)c12 [Compound 7] | > 1000 | 10 to 50 | 
8 | Cc1ccc2c(=O)c3ccccc3n(CC(=O)O)c2c1C [Compound 99] | 500 to 1000 | 50 to 100 | 
9 | Cc1ccc2c(=O)c3ccc(Br)cc3n(CC(=O)O)c2c1 [Compound 53] | 100 to 500 | 10 to 50 | 
10 | Cc1cccc2c1c(=O)c1ccccc1n2CC(=O)O [Compound 3] |  | 10 to 50 | 
11 | O=C(O)Cn1c2ccccc2c(=O)c2c(Br)cccc21 [Compound 20] |  | 50 to 100 | 
12 | Cc1ccc2c(=O)c3ccc(F)cc3n(CC(=O)O)c2c1 [Compound 33] |  | 10 to 50 | 
13 | Cc1ccc2c(=O)c3ccc(Cl)c(Br)c3n(CC(=O)O)c2c1 [Compound 112] | < 100 |  | IC50 [3]: 20 to 100 µM; Emax [4]: 5 to 25%; MOUSE DSF_6xHIS-SUMO Tm Shift (° C.) [6]: C (“C” = 5-15° C.); WT_DSF_hSWAT Tm Shift (° C.) [5]: B (“B” = 0-2° C.)
14 | Cc1ccc2c(=O)c3c(C)cccc3n(CC(=O)O)c2c1 [Compound 14] |  | 10 to 50 | 
15 | O=C(O)Cn1c2cc(NC3CCCCCC3)ccc2c(=O)c2ccc(Cl)c(Cl)c21 [Compound 122] | < 100 |  | IC50 [3]: 20 to 100 µM; Emax [4]: > 50%; MOUSE DSF_6xHIS-SUMO Tm Shift (° C.) [6]: D (“D” > 15° C.); WT_DSF_hSWAT Tm Shift (° C.) [5]: C (“C” = 2-7° C,)
16 | O=C(O)Cn1c2ccccc2c(=O)c2ccc(Br)cc21 [Compound 18] |  | 10 to 50 | 
17 | O=C(O)Cn1c2ccccc2c(=O)c2cc(Br)ccc21 [Compound 21] |  | > 100 | 
18 | O=C(O)Cn1c2ccc(-c3ccccc3)cc2c(=O)c2ccc(Cl)c(Cl)c21 [Compound 125] | < 100 |  | IC50 [3]: 20 to 100 µM; Emax [4]: < 5%; MOUSE DSF_6xHIS-SUMO Tm Shift (° C.) [6]: B (“B” = 0-5° C.); WT_DSF_hSWAT Tm Shift (° C.) [5]: C (“C” = 2-7° C,)
19 | Cc1ccc2c(=O)c3ccccc3n(CC(=O)O)c2c1 [Compound 6] |  | 10 to 50 | 
20 | O=C(O)Cn1c2ccccc2c(=O)c2ccc(F)cc21 [Compound 4] |  | 10 to 50 | 
21 | O=C(O)Cn1c2ccccc2c(=O)c2ccc(C#Cc3ccccc3)cc21 [Compound 25] |  | 10 to 50 | 
22 | O=C(O)Cn1c2ccccc2c(=O)c2c(Cl)cccc21 [Compound 2] |  | 50 to 100 | 
23 | Cc1ccc2c(=O)c3c(F)cccc3n(CC(=O)O)c2c1 [Compound 36] |  | 10 to 50 | 
24 | Cc1ccc2c(=O)c3c(Cl)cccc3n(CC(=O)O)c2c1 [Compound 16] |  | 10 to 50 | 
25 | O=C(O)Cn1c2ccccc2c(=O)c2ccc(Cl)cc21 [Compound 5] |  | 10 to 50 | 
26 | COc1cccc2c1c(=O)c1ccc(C)cc1n2CC(=O)O [Compound 32] |  | > 100 | 
